Results reported in patent publication US20040191203A1, “Cosmetic or dermatological composition comprising n-acylaminoamide derivatives” (priority 2001, published 2004).

Tests used:
[1] = target: T1, human leukocyte elastase (HLE) (Homo sapiens, UniProt P08246); assay: anti-elastase activity relative to human leukocyte elastase, Me-OSAAPV-p-NA substrate, spectrophotometry; type: biochemical
T1 sequence (P08246 30-267): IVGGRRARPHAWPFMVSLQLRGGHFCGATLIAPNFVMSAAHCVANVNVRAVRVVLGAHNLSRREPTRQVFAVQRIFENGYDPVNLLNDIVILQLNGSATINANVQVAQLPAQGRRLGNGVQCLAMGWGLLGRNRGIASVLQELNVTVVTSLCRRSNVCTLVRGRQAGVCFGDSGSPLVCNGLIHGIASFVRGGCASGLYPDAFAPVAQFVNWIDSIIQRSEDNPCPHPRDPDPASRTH
Experimental: The anti-elastase activity of compounds according to the invention has been determined relative to human leukocyte elastase (HLE).
The test is performed as follows. […]
The inhibition % of the control elastase activity is then determined through spectrophotometry.

[2] = system: surviving human skins treated by human leukocyte elastase (HLE); assay: ex vivo activity on fresh cuts of surviving human skins treated by HLE for 2 hours, elastic fibre morphometry; conditions: 20° C.
Experimental: The ex vivo activity of the compound in example 2 has been evaluated on surviving human skins treated by human leukocyte elastase (HLE). Fresh cuts from human skins, originating from 2 different donors, are treated for 2 hours, at 20° C., by 20 μl of a buffer solution (pH 7.4) optionally comprising 10 μg/ml of HLE and optionally 0.1% of the compound to be tested, optionally previously put in a solution in ethanol. The elastic fibres are coloured in blue using (+) catechin and are morphometrically quantified by computer assisted picture analysis. The surface percentage of average dermis occupied by the elastic fibres was evaluated this way.

[3] = system: surviving human skins treated by human leukocyte elastase (HLE); assay: ex vivo activity on human skin fragments kept surviving 10 days in culture with HLE, elastic fibre morphometry; conditions: HLE 0.5 μg per ml of medium + 5 μl of compound at 0.2% in ethanol every other day, 37° C., 3 donors
Experimental: The ex vivo activity of the compound in example 2 has been evaluated on surviving human skins treated by human leukocyte elastase (HLE). Fragments of normal human skin, originating from 3 different donors, are placed in inserts positioned in culture wells. Some antibiotic supplemented culture medium is added in the bottom of the wells. A passage occurs through slow diffusion between both compartments by means of a porous membrane (pore size: 12 μm). The culture medium is renewed every three days. Optionally 0.5 μg of HLE per ml of culture medium are optionally added on the skin fragments. Also are added, every other day, 5 μl of the compound to be tested, previously put in a solution at 0.2% in weight in ethanol. The skins are kept surviving for 10 days at 37° C. The elastic fibres are coloured in blue using (+) catechin and are morphometrically quantified by computer assisted picture analysis. The surface percentage of average dermis occupied by the elastic fibres was evaluated this way.

[4] = system: surviving UVA irradiated human skins (8 J/cm^2); assay: activity on surviving UVA irradiated human skins, morphometry of elastic fibres and collagen; conditions: UVA 8 J/cm^2 + 5 μl of compound at 0.2% in ethanol every two days; 7 days, 37° C.; four donors
Experimental: The activity of the compound in example 2 has been evaluated on surviving UVA irradiated human skins (8 J/cm^2). Fragments of normal human skin, originating from four different donors, are placed in inserts positioned in culture wells. Some antibiotic supplemented culture medium is added in the bottom of the wells. A passage occurs through slow diffusion between both compartments by means of a porous membrane (pore size: 12 μm). The culture medium is renewed every three days. On the skin fragments, every two days, are added 5 μl of the compound to be tested, previously put in a solution at 0.2% in ethanol. The skins are kept surviving for 7 days at 37° C. The skins are irradiated once at 8 J/cm^2 at 37° C. (Vilbert-Lourmat lamp, RMX-3W). The elastic fibres are coloured in blue using (+) catechin and are morphometrically quantified by computer assisted picture analysis. The surface percentage of average dermis occupied by the elastic fibres was evaluated this way.

Inhibition % of the control elastase activity ([1]; concentration of compound A 0.2%)	inhibition of the elastase activity (in words) ([1]; even in a low amount)	Inhibition % of the control elastase activity ([1]; compound concentration 0.1%, HLE 40 milli-units per ml, 37° C., 60 minutes)	SMILES	Surface % occupied by the elastic fibres ([2]; Skin 1, HLE 10 μg/ml + 0.1% compound)	Surface % occupied by the elastic fibres ([2]; Skin 2, HLE 10 μg/ml + 0.1% compound)	Surface % occupied by the elastic fibres [3]	Morphometric analysis of the collagen (superficial dermis) [4]	Morphometric analysis of the elastic fibres (superficial dermis) [4]
68%	strong inhibition		CC(=O)N(c1cccc(C(F)(F)F)c1)C(C(=O)NCC(=O)O)C(C)C (centres unmarked) [Compound A, {2-[acetyl-(3-trifluoromethyl-phenyl)-amino]-3-methyl-butyrylamino}acetic acid]	13.95%	11.85%	7.1%	92%	6.8%
		17%	CCOC(=O)CNC(=O)C(C(C)C)N(Cc1ccccc1)C(=O)CP(=O)(OCC)OCC (centres unmarked) [Compound B, ethyl (2-{benzyl-[(diéethoxyphosphoryl)-acetyl]-amino}-3-méthylbutyrylamino) acetate]					
